The values below are quoted from earlier work in patent US11946927B2, “Process and system for identifying individuals having a high risk of inflammatory bowel disease and a method of treatment” (MUSIDORA BIOTECHNOLOGY LLC, priority 2016, dated 2024).

The subject of the data set is patients with active UC.

For `Nc1ccc(O)c(C(=O)O)c1` [mesalamine], where the note is “active UC, first-line conventional clinical treatment”, the “efficacy of mesalamine in active UC” value was 30-40%. The clinical treatment failures (mesalamine used to treat active UC, patients with moderate UC, compared to 80% treated with placebo) was 60 % of patients.
